In this test the target is T1, PTP1B (Homo sapiens, UniProt P18031).
T1 sequence (P18031 1-435): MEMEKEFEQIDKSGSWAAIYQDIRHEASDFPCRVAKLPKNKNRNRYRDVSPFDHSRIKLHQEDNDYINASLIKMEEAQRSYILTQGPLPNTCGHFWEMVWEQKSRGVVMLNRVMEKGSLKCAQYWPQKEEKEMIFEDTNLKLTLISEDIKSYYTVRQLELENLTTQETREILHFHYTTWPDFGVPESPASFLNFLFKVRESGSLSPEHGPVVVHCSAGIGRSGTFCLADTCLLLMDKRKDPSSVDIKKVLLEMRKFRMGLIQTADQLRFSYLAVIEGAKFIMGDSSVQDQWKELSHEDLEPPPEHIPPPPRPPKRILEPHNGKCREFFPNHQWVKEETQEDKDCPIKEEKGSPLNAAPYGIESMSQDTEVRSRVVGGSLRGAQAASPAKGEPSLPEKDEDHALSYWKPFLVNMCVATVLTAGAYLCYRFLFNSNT
The experiment in a line: Time-dependent IC50 determination, PTP1B (10 min preincubation, pNPP). The test is classed as biochemical. Here is the method: During active compound characterization, other common PTPs, including SHP1. PTP1B, and LYP, were counter-screened. Compounds were incubated for 10 minutes with the corresponding PTP (4 μM) before being diluted 50-fold into a solution containing excess substrate para-nitrophenyl phosphate (10 mM) to monitor the remaining activity. […] This was not expected, given their high sequence and structural homology. […] While unexpected, the lower sequence homology provides a rationale for the observed selectivity.
Inhibitors were evaluated for their ability to inhibit the reaction catalyzed by SHP2 using para-nitrophenyl phosphate (pNPP) as a substrate at pH 7 and 25° C. The reaction was started in a clear flat-bottom 96-well plate (Corning Costar Assay Plate #9017) by the addition of 25 μL of 4 μM PTP in DMG buffer to 25 μl of 2× inhibitor (final concentrations=2 μM PTP, 100-0 μM inhibitor). Reactions were incubated for 1 or 10 minutes before transferring 4 μL into 196 μL of 10.1 mM pNPP in DMG buffer (final concentration=40 nM PTP, 10 mM pNPP). These wells were then allowed to react for 10, 45, or 3 minutes for SHP1 and SHP2, LYP, PTP1B respectively before quenching with 50 μL of 5 M NaOH. Plates were then read for absorbance at 405 nm using a CLARIOstar^Plus plate reader (BMG Labetch). […]

The source of these data is patent US20260327239A1, “COMPOUNDS FOR COVALENT INHIBITION OF SHP2” (Purdue Research Foundation, priority 2023, published 2026).

One may read the IC50 as the point on the concentration scale where inhibition reaches its midpoint.

Take `C=C1C(=O)[C@@]2(C(=O)N3CCN(c4ccc(I)cc4)CC3)CC(=O)C[C@@H]1C2` [Compound 37]: the IC50 (PTP1B, 10 minutes preincubation, curve not completed (solubility), extrapolated, read-out: 10 Minute IC50) was 677 µM. Besides, the “Fold-Selective (10 Minutes)” value (SHP2 over PTP1B) is listed as 44.56.
